The results in this text go back to US20040122218A1, “Pyrrolopyridine potassium channel openers” (priority 2002, published 2004).

One data set has as its system Landrace pig bladders. The experiment in a line: In vitro functional model: field-stimulated bladder tissue strips. To be noted: concentration range of 10^−9 to 10^−5 M, cumulative. As for the experimental part: In Vitro Functional Model
Compounds were evaluated for functional BK channel opening activity using tissue strips obtained from Landrace pig bladders. Landrace pig bladders were obtained from female Landrace pigs of 9-30 kg. Landrace pigs were euthanized with an intraperitoneal injection of pentobarbital solution, Somlethal®, J.A. Webster Inc., Sterling Mass. The entire bladder was removed and immediately placed into Krebs Ringer bicarbonate solution (composition, mM: NaCl, 120; NaHCO3, 20; dextrose, 11; KCl, 4.7; CaCl2, 2.5; MgSO4, 1.5; KH2PO4, 1.2; K2EDTA, 0.01, equilibrated with 5% CO2/95% O2 pH 7.4 at 37° C.). Propranolol (0.004 mM) was included in all of the assays to block β-adrenoceptors. The trigonal and dome portions were discarded. Strips 3-5 mm wide and 20 mm long were prepared from the remaining tissue cut in a circular fashion. The mucosal layer was removed. One end was fixed to a stationary glass rod and the other to a Grass FT03 transducer at a basal preload of 1.0 gram. Two parallel platinum electrodes were included in the stationary glass rod to provide field stimulation of 0.05 Hz, 0.5 milli-seconds at 20 volts. […] The maximal efficacy of each compound (expressed as % relative to P1075) is reported. […] Agonist potencies were also expressed as an index relative to P1075. The index was calculated by dividing the ED50 for P1075 by the ED50 for the test agonist in a given tissue. […]

The molecule `N#Cc1c(N2CCC[C@H]2CO)[nH]c2cccnc12` [Example 10, (S)-2-(2-Hydroxymethyl-pyrrolidin-1-yl)-1H-pyrrolo [3,2-b]pyridine-3-carbonitrile] showed a melting point of 207 to 209 °C.
On to `CCC(C)(C)N=C(NC#N)Nc1cccnc1` [Example P1075], for which, in the data set with Landrace pig bladders, the “effect on stimulated twitch” value was “completely eliminated the stimulated twitch”.
`N#Cc1c(N2CCCCC2)[nH]c2cccnc12` [Example 18, 2-Piperidin-1-yl-1H-pyrrolo[3,2-b]pyridine-3-carbonitrile] displayed a melting point of 241 to 242 °C.
`N#Cc1c(N2CCC[C@@H]2CO)[nH]c2cccnc12` [Example 9, (R)-2-(2-Hydroxymethyl-pyrrolidin-1-yl)-1H-pyrrolo [3,2-b]pyridine-3-carbonitrile] came in with a melting point of 207 to 209 °C.
